Data on eight molecules can be found in US20250042898A1, “Pharmaceutical Compounds And Compositions As c-Kit Kinase Inhibitors” (Enanta Pharmaceuticals, Inc., priority 2023, published 2025).

SMILES strings stand for the structures.

In experiment [1] the target is Recombinant human c-KIT kinase (Homo sapiens (Human), UniProt P10721). The experiment can be described thus: c-KIT Kinase Chemiluminescence Assay (ADP-Glo). The experiment is classed as biochemical. The settings on record: recombinant human c-KIT 25 ng, ATP 50 μM, polyEY substrate, ADP-Glo luminescence. From the text:
Staurosporine (AM-2282) and Imatinib (STI571) were purchased from Selleck Chemicals LLC (Houston, TX). The c-KIT reference compound THB001 (EP-053504) was synthesized by Enanta Pharmaceuticals, Inc. (Watertown, MA). The c-KIT Kinase Enzyme System (V4498) and ADP-Glo™ Kinase Assay kit (V6930) were purchased from Promega (Madison, WI). DMSO (D2650) was purchased from Sigma-Aldrich (Burlington, MA). ECHO-650 acoustic liquid handling system (67/492,212) and 384-well LDV ECHO source plates (LP-0200) were purchased from Labcyte, Inc (San Jose, CA). Envision Multimode Plate Reader (2104/464466) and ProxiPlate-384 Plus White 384-shallow well microplates (6008280) were purchased from PerkinElmer (Waltham, MA).
c-KIT Kinase Chemiluminescence Assay:
IC50 determination. Test compounds were dispersed into a 384-well low volume while ProxiPlate microplate from a DMSO solution using an ECHO 650 acoustic dispenser to generate a 11-point, 3.162-fold dilution, concentration curve starting at 10 μM in duplicate. Kinase Reaction: The kinase assay was based on the recommended protocol by c-KIT Kinase Enzyme System from Promega. Recombinant human c-KIT kinase in 3 μL of assay buffer (40 mM Tris pH 7.5, 20 mM MgCl2, 0.1 mg/mL BSA and 50 μM DTT) was added to the test or high control wells and 3 μL of assay buffer was added to the low control wells. The microplate was centrifuged at 800 rotations per minute (rpm) for 60 s and incubated at room temperature (RT) for 30 min. Next, 2 μL of buffered ATP and polyEY substrate solution was added to all wells. The microplate was centrifuged at 800 rpm for 60 s and incubated at RT for 2 h. The final assay contained c-KIT (25 ng), ATP (50 μM), polyEY substrate (0.2 μg/μL), test compounds (0-10 μM) and DMSO (1.7%) in 5 μL assay buffer. ADP detection with ADP-Glo™ Kinase Assay: After the kinase reaction incubation, 5 μL of ADP-Glo™ reagent was added to all wells. The microplate was centrifuged at 800 rpm for 60 s and incubated at RT for 40 min. Ten microliter (10 μL) of Kinase Detection Reagent (Luciferin-Luciferase system) was then added to all wells. The microplate was centrifuged at 800 rpm for 60 s and incubated at RT for 60 min. Kinase activity was measured as increase in luminescence at RT in an Envision plate reader equipped with 560 nm filters and operating in endpoint mode.
Data Analysis: Endpoint chemiluminescence from high and low control wells were used to calculate normalized c-KIT activity at various concentrations of test compounds. The normalized activities were fitted to inhibitor-versus-normalized response fit in GraphPad Prism 7 to determine half-maximal inhibitory concentration (IC50) and hill coefficient values (H).
c-KIT activity (%)=100/(1+I^H/IC50^H).
Where I is the inhibitor concentration and H is the Hill coefficient.
IC50 ranges are reported as follows: A<100 nM; B 0.1-1 μM; C>1 μM.

The subject of another experiment is M-07e cells. The experiment can be described thus: M-07e Cellular Assay (SCF-mediated cell proliferation, CellTiter Glo). In kind it is cell-based. The settings on record: Homo sapiens, SCF at EC90, 72 hours incubation, CellTiter Glo cell viability, read-out: M-7e EC50. As for the experimental part:
M-07e cells (Creative Bioarray, CSC-C0249) which endogenously express human c-KIT were used to evaluate the effect of compounds on stem cell factor (SCF)-mediated cell proliferation. M-07e cells were cultured in growth media (RPMI+10% FBS+1% penicillin/streptomycin+10 ng/mL GM-CSF) at 5E5-1.5E6 cells/mL, replenishing media every 3-4 days. 1.5E4 cells were seeded per well in 384 well tissue culture treated plates in […] assay media (RPMI+10% FBS+1% penicillin/streptomycin) without growth factor stimulation and incubated at 37° C. in a CO2 humidity-controlled incubator. Twenty-four hours later, three-fold serially diluted test compounds in media containing SCF (at the previously determined EC90) were added to the plated M-07e cells and incubated for an additional 72 hours. Cell viability was determined by adding 25 μL CellTiter Glo (Promega) to the cells and the luminescence was measured using a Perkin Elmer Envision plate reader. The EC50 was determined using GraphPad Prism. Percent cell growth was determined after normalizing the curve to the mean RLU high control (no compound control wells) at 100% and the mean RLU low control (no SCF control wells) at 0%. EC50 curves were generated using a variable slope four-parameter logistic model with equation […]. ECso ranges are reported as follows: A<100 nM; B 0.1-1 μM; C>1 μM.

Chain of Recombinant human c-KIT kinase (P10721 26-976): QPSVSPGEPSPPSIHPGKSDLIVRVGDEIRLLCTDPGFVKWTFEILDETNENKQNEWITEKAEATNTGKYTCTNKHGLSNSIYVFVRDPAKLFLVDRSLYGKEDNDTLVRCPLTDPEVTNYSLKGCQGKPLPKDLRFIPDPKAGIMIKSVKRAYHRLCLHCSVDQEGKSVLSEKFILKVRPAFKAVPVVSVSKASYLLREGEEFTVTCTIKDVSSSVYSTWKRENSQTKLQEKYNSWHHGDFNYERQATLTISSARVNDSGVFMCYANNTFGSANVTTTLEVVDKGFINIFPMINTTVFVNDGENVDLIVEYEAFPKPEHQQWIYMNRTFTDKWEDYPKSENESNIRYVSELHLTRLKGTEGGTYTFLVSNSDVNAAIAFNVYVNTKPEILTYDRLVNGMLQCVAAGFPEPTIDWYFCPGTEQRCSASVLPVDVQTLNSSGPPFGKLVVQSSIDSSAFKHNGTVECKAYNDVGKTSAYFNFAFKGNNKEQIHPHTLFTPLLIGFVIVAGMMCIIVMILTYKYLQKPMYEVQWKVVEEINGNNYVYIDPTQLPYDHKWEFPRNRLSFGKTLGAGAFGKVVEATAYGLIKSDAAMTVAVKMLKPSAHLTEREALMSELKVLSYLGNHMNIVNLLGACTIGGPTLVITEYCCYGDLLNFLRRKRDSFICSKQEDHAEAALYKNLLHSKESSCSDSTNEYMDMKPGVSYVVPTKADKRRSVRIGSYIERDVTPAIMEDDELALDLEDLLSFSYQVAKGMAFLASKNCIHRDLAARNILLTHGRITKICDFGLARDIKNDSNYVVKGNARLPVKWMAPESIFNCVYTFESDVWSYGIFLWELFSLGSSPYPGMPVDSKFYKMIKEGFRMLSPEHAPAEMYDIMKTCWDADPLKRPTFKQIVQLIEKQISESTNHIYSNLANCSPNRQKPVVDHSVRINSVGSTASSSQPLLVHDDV

For the molecule `Cc1ncc(-c2noc([C@H]3C[C@@H]3F)n2)cc1NC(=O)c1cnc2ccc(N3CC4(C3)CC(O)(C(F)F)C4)cn12` [Example 15], the IC50 in experiment [1] fell in the range of 0.1 to 1 µM.
On the same count and under the same terms, the same measure for `Cc1ncc(-c2noc([C@H]3C[C@@H]3F)n2)cc1NC(=O)c1cnc2cc(N3CC4(C3)CC(O)(C(F)F)C4)ccn12` [Example 17]: 0.1 to 1 µM.
Consider `Cc1ncc(-c2ncc(OC(F)(F)F)cn2)cc1NC(=O)c1cnc2ccc(N3CC4(C3)CC(O)(C(F)F)C4)cn12` [Example 14], for which, in experiment [1], the IC50 is over 1 µM.
For the molecule `O=C(Nc1cc(-c2noc([C@H]3C[C@@H]3F)n2)ccn1)c1cnc2ccccn12` [Example 1], in experiment [1], the IC50 was over 1 µM. Moreover, in the experiment on M-07e cells, the EC50 is over 1 µM.
For the molecule `Cc1sc(-c2noc(C3CC(F)(F)C3)n2)cc1NC(=O)c1cnc2ccccn12` [Example 4], the concentration for half-maximal inhibition (IC50) in experiment [1] fell in the range of 0.1 to 1 µM. For the same molecule, the EC50 in the experiment on M-07e cells lay in the range of 0.1 to 1 µM.
For the molecule `O=C(Nc1cc(-c2noc(C3CC(F)(F)C3)n2)ccn1)c1cnc2ccccn12` [Example 2], the IC50 in experiment [1] is over 1 µM. Besides, the half-maximal effective concentration (EC50) in the experiment on M-07e cells was over 1 µM.
For `Cc1sc(-c2noc([C@H]3C[C@@H]3F)n2)cc1NC(=O)c1cnc2ccccn12` [Example 3], in experiment [1], the half-inhibitory concentration (IC50) lay in the range of 0.1 to 1 µM. Further, in the experiment on M-07e cells, the EC50 lay in the range of 0.1 to 1 µM.
For the molecule `Cc1ncc(-c2nnn(C3CC(F)(F)C3)n2)cc1NC(=O)c1cnc2ccc(N3CC4(C3)CC(O)(C(F)F)C4)cn12` [Example 16], the IC50 in experiment [1] lay within 0.1 to 1 µM.
